Assay [1] deals with interferon (α). Put plainly: Cytokine Induction in Human Cells: interferon (α) by ELISA. Particulars: PBMC; human PBMCs, incubated 18 to 24 hours, lowest concentration found to induce interferon. In kind it is cell-based. The source says: (§1) An in vitro human blood cell system was used to assess cytokine induction by compounds of the invention. Activity is based on the measurement of interferon and tumor necrosis factor (α) (IFN and TNF, respectively) secreted into culture media as described by Testerman et. al. In “Cytokine Induction by the Immunomodulators Imiquimod and S-27609”, Journal of Leukocyte Biology, 58, 365–372 (September, 1995).
(§2) Whole blood is collected by venipuncture into EDTA vacutainer tubes from healthy human donors. Peripheral blood mononuclear cells (PBMCs) are separated from whole blood by density gradient centrifugation using Histopaque®-1077 (Sigma Chemicals, St. Louis, Mo.). The PBMCs are suspended at 3–4×10^6 cells/mL in RPMI 1640 medium containing 10% fetal bovine serum, 2 mM L-glutamine and 1% penicillin/streptomycin solution (RPMI complete). The PBMC suspension is added to 48 well flat bottom sterile tissue culture plates (Costar, Cambridge, Mass. or Becton Dickinson Labware, Lincoln Park, N.J.) containing an equal volume of RPMI complete media containing test compound.
(§3) The compounds are solubilized in dimethyl sulfoxide (DMSO). The DMSO concentration should not exceed a final concentration of 1% for addition to the culture wells.
(§4) The solution of test compound is added at 60 μM to the first well containing RPMI complete and serial (three fold or ten fold) dilutions are made. The PBMC suspension is then added to the wells in an equal volume, bringing the test compound concentrations to the desired range. The final concentration of PBMC suspension is 1.5–2×10^6 cells/mL. The plates are covered with sterile plastic lids, mixed gently and then incubated for 18 to 24 hours at 37° C. in a 5% carbon dioxide atmosphere.
(§5) Following incubation the plates are centrifuged for 5–10 minutes at 1000 rpm (˜200×g) at 4° C. The cell culture supernatant is removed with a sterile polypropylene pipet and transferred to sterile polypropylene tubes. Samples are maintained at −30 to −70° C. until analysis. The samples are analyzed for interferon (α) and tumor necrosis factor (α) by ELISA
Interferon (α) concentration is determined by ELISA using a Human Multi-Species kit from PBL Biomedical Laboratories, New Brunswick, N.J.
(§6) The table below lists the lowest concentration found to induce interferon and the lowest concentration found to induce tumor necrosis factor for each compound.
(In an ELISA, binding on a coated surface is turned into a signal by an enzyme label.)

Assay [2] relates to tumor necrosis factor (α). Kind of assay: Cytokine Induction in Human Cells: tumor necrosis factor (α) by ELISA. Type of assay: cell-based. Particulars: PBMC; human PBMCs, incubated 18 to 24 hours, lowest concentration found to induce tumor necrosis factor.
From the text: as §1, §2, §3, §4, §5
Tumor necrosis factor (α) (TNF) concentration is determined using ELISA kits available from Genzyme, Cambridge, Mass.; R&D Systems, Minneapolis, Minn.; or Pharmingen, San Diego, Calif.
as §6

These results are taken from patent publication US7157453B2, “Urea substituted imidazoquinolines” (3M Innovation Properties Company, priority 1999, dated 2007).

The structures appear in SMILES notation. Where a name gives a salt, the structure may show the parent alone.

Turning to `Nc1nc2ccccc2c2c1ncn2CCCCNC(=O)Nc1ccc(Br)cc1` [Example 42], the minimal effective concentration in assay [1] and in assay [2] was > 30 µM throughout.

For the compound `COCCc1nc2c(N)nc3ccccc3c2n1CCCCNC(=S)Nc1cccnc1` [Example 125], the minimal effective concentration in assay [1] is 0.0001 µM; in assay [2] it was 10 µM.

As for `CCCCCCNC(=O)NCCCCn1cnc2c(N)nc3ccccc3c21` [Example 25], the minimal effective concentration in assay [1] is 3.33 µM; in assay [2] it was > 30 µM.

Turning to `CCCCCNC(=O)NCCCCn1cnc2c(N)nc3ccccc3c21` [Example 30], the results for the minimal effective concentration in assay [1] and in assay [2] were 3.33 µM and 30 µM, respectively.

For the compound `CCCCc1nc2c(N)nc3ccccc3c2n1CCCCNC(=O)NCc1ccc(C)cc1` [Example 84], the minimal effective concentration in assay [1] was determined as 0.1 µM; in assay [2] it was 1 µM.

Take `Nc1nc2ccccc2c2c1ncn2CCCCNC(=O)Nc1ccccc1C(F)(F)F` [Example 46]: the minimal effective concentration amounted to 1.11 µM in assay [1] and 3.33 µM in assay [2].

Take `CCCNC(=O)NCCCCn1cnc2c(N)nc3ccccc3c21` [Example 26]: the figures for the minimal effective concentration in assay [1] and in assay [2] were 10 µM and > 30 µM, respectively.

Consider `CCCCc1nc2c(N)nc3ccccc3c2n1CCCNC(=O)OC(C)(C)C` [Example 147, tert-butyl 3-(4-amino-2-butiyl-1H-imidazo[4,5-c]quinolin-1-yl)propylcarbamate], for which the minimal effective concentration is 0.01 µM in assay [1] and 0.12 µM in assay [2].

For the compound `COCCc1nc2c(N)nc3ccccc3c2n1CCCCNC(=O)Nc1cccc(C)c1` [Example 106], the values for the minimal effective concentration in assay [1] and in assay [2] were 0.0001 µM and 1 µM, respectively.

For the compound `COCCc1nc2c(N)nc3ccccc3c2n1CCCCNC(=O)N(C)c1ccccc1` [Example 120], the minimal effective concentration in assay [1] is 0.0001 µM; in assay [2], 0.01 µM.

As to `COCCc1nc2c(N)nc3ccccc3c2n1CC(C)(C)CNC(=O)Nc1ccccc1` [Example 169, N-{3-[4-amino-2-(2-methoxyethyl)-1H-imidazo[4,5-c]quinolin-1-yl]-2,2-dimethylpropyl}-N′-phenylurea], the minimal effective concentration in assay [1] and in assay [2] was 0.01 µM each time.

As for `CCCCCCCCNC(=O)NCCCCn1c(CCCC)nc2c(N)nc3ccccc3c21` [Example 87], the minimal effective concentration in assay [1] was 1 µM; in assay [2], > 10 µM.

With `COCCc1nc2c(N)nc3ccccc3c2n1CCCCNC(=O)Nc1c(Cl)cccc1Cl` [Example 118], the minimal effective concentration in assay [1] and in assay [2] was 10 µM in each case.

`COCCc1nc2c(N)nc3ccccc3c2n1CCCCNC(=O)Nc1cccc(C#N)c1` [Example 108]: the minimal effective concentration in assay [1] and in assay [2] was 0.0001 µM throughout.

Consider `CCCCc1nc2c(N)nc3ccccc3c2n1CCNC(=O)Nc1ccc(Oc2ccccc2)cc1` [Example 54], for which the values for the minimal effective concentration in assay [1] and in assay [2] were > 10 µM and 10 µM, respectively.

For the compound `Nc1nc2ccccc2c2c1ncn2CCCCNC(=O)Nc1ccccc1` [Example 16], the minimal effective concentration in assay [1] was determined as 1.11 µM; in assay [2], 10 µM.

Take `COCCc1nc2c(N)nc3ccccc3c2n1CCCCNC(=O)N[C@H](C)c1ccccc1` [Example 110]: the figures for the minimal effective concentration in assay [1] and in assay [2] were 0.001 µM and 1 µM, respectively.

As to `Cc1ccccc1NC(=O)NCCCCn1cnc2c(N)nc3ccccc3c21` [Example 48], the minimal effective concentration worked out at 0.37 µM in assay [1] and 3.33 µM in assay [2].

As to `CCCCc1nc2c(N)nc3ccccc3c2n1CCCCNC(=O)N[C@@H]1C[C@H]1c1ccccc1` [Example 88], the minimal effective concentration in assay [1] amounted to 0.1 µM; in assay [2] it was 1 µM.

As to `CC(C)(C)CC(C)(C)NC(=O)NCCCCn1cnc2c(N)nc3ccccc3c21` [Example 32], the minimal effective concentration in assay [1] and in assay [2] was 10 µM each time.

Regarding `COCCc1nc2c(N)nc3ccccc3c2n1CCCCCCCCNC(=O)Nc1ccccc1` [Example 145, N-{8-[4-amino-2-(2-methoxyethyl)-1H-imidazo[4,5-c]quinolin-1-yl]octyl}-N′-phenylurea], the values for the minimal effective concentration in assay [1] and in assay [2] were 0.01 µM and 0.04 µM, respectively.

For `CCCCc1nc2c(N)nc3ccccc3c2n1CCNC(=O)NC12CC3CC(CC(C3)C1)C2` [Example 53], the minimal effective concentration was > 10 µM in assay [1] and 10 µM in assay [2].

`CCCCNC(=O)NCCCCn1cnc2c(N)nc3ccccc3c21` [Example 52]: the minimal effective concentration in assay [1] amounted to 1.11 µM; in assay [2], 10 µM.

In the case of `CCNC(=O)NCCCCn1c(CCOC)nc2c(N)nc3ccccc3c21` [Example 101], the results for the minimal effective concentration in assay [1] and in assay [2] were 0.01 µM and 1 µM, respectively.

As for `COCCc1nc2c(N)nc3ccccc3c2n1CCCCNC(=O)N[C@@H](C)c1ccccc1` [Example 111], the minimal effective concentration turned out to be 0.001 µM in assay [1] and 1 µM in assay [2].

`Nc1nc2ccccc2c2c1ncn2CCCCNC(=O)Nc1ccccc1-c1ccccc1` [Example 45]: the minimal effective concentration was 3.33 µM in assay [1] and > 30 µM in assay [2].

With `COCCc1nc2c(N)nc3ccccc3c2n1CCCCNC(=O)Nc1ccc(C#N)cc1` [Example 109], the minimal effective concentration was determined as 0.0001 µM in assay [1] and 0.1 µM in assay [2].

With `COCCc1nc2c(N)nc3ccccc3c2n1CCCCNC(=S)Nc1ccc(N(C)C)c2ccccc12` [Example 126], the minimal effective concentration in assay [1] is 0.0001 µM; in assay [2] it was 1 µM.

As for `COCCc1nc2c(N)nc3ccccc3c2n1CCCCNC(=O)Nc1ccccc1` [Example 104], the minimal effective concentration in assay [1] came out at 0.0001 µM; in assay [2], 1 µM.

As to `CCCNC(=O)NCCCCn1c(CCOC)nc2c(N)nc3ccccc3c21` [Example 102], the minimal effective concentration in assay [1] was 0.001 µM; in assay [2], 1 µM.

Take `COCCc1nc2c(N)nc3ccccc3c2n1CCCCNC(=O)Nc1ccccc1Cl` [Example 112]: the minimal effective concentration in assay [1] is 0.0001 µM; in assay [2], 0.1 µM.

Regarding `COCCc1nc2c(N)nc3ccccc3c2n1CCCCNC(=O)NC(=O)c1ccccc1` [Example 141, N^1-{4-[4-Amino-2-(2-methoxyethyl)-1H-imidazo[4,5-c]quinolin-1-yl]butyl}-N^3-benzoylurea Trifluoroacetate], the values for the minimal effective concentration in assay [1] and in assay [2] were > 10 µM and 10 µM, respectively.

On to `CCCCc1nc2c(N)nc3c(c2n1CCCCNC(=O)NS(=O)(=O)c1ccccc1)CCCC3` [Example 137], for which the values for the minimal effective concentration in assay [1] and in assay [2] were 1 µM and 10 µM, respectively.

`CCCCCc1nc2c(N)nc3c(c2n1CCCCNC(=O)N1CCOCC1)CCCC3` [Example 172, N-[4-(4-amino-2-pentyl-6,7,8,9-tetrahydro-1H-imidazo[4,5-c]quinolin-1-yl)butyl]morpholine-4-carboxamide hydrochloride]: the minimal effective concentration in assay [1] was found to be 0.01 µM; in assay [2] it was 0.37 µM.

With `COCCc1nc2c(N)nc3ccccc3c2n1CCCCNC(=O)Nc1cccc(F)c1` [Example 107], the minimal effective concentration is 0.0001 µM in assay [1] and 1 µM in assay [2].

`Nc1nc2ccccc2c2c1ncn2CCCCNC(=O)Nc1ccc(Oc2ccccc2)cc1` [Example 33]: the minimal effective concentration in assay [1] and in assay [2] was > 30 µM throughout.

As for `COCCc1nc2c(N)nc3ccccc3c2n1CCCCNC(=O)N1CCCC1` [Example 122], the values for the minimal effective concentration in assay [1] and in assay [2] were 0.001 µM and 1 µM, respectively.

`Nc1nc2ccccc2c2c1ncn2CCCCNC(=O)Nc1ccc([N+](=O)[O-])cc1` [Example 17]: the minimal effective concentration in assay [1] is > 30 µM; in assay [2], 30 µM.

Consider `CCCCc1nc2c(N)nc3ccccc3c2n1CCNC(=O)NCCC` [Example 56], for which the minimal effective concentration in assay [1] and in assay [2] was 1 µM each time.

In the case of `Nc1nc2ccccc2c2c1ncn2CCCCNC(=O)NCc1ccccc1` [Example 35], the minimal effective concentration in assay [1] amounted to 1.11 µM; in assay [2], 10 µM.

A word on the minimal effective concentration: it is the lowest level tested that produced the effect sought.
